The assay concerns the target T1, pancreatic lipase (Sus scrofa, UniProt P00591).
T1 sequence (P00591 1-450): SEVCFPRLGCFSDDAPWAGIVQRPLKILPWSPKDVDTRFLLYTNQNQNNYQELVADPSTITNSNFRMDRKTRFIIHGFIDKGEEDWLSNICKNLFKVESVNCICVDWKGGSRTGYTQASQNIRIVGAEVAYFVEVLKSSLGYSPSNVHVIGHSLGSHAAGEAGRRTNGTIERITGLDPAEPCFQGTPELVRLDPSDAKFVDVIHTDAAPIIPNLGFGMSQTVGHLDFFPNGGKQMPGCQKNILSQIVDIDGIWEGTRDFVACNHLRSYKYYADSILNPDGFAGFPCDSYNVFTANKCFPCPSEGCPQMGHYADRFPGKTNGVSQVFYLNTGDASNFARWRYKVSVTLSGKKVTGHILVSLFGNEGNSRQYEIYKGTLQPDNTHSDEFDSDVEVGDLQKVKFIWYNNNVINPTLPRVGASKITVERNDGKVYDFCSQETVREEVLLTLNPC
Kind of assay: pancreatic lipase inhibition assay. The class given is biochemical.
For the molecule `COc1cc(O)c2c(c1)C1(OC2=O)C(C)=CC(=O)C1O` (stereo not drawn) [Compound 1, talaroflavone], the IC50 (usually the concentration needed to halve the response being measured) worked out at 73.8 ± 0.82 µM. Next, `COc1cc(O)c(C(=O)O)c(-c2cc(O)c(O)cc2C)c1` [Compound 4, altenusin]: 21.5 ± 0.97 µM. In the case of `Cc1cc(O)cc2oc(=O)c3c(O)cc(O)cc3c12` [Compound 5, alternariol], half-maximal inhibition (IC50) required 56.8 ± 0.77 µM.

The values are drawn from paper PMC9434606 (RSC Advances, 2022).
